Source: patent US20250339443A1, “METHOD FOR TREATING OR PREVENTING CALCIUM RELEASE-ACTIVATED CALCIUM CHANNEL OR DISCOIDIN DOMAIN RECEPTOR 2 RELATED DISORDERS OR CONDITIONS” (LumiSTAR Biotechnology, Inc., priority 2023, published 2025)

Experiments:
CCL-226 cells = test: TGF-β1-induced pericyte-to-myofibroblast activation (Western blot); assay type: cell-based, mouse; conditions: CCL-226, 10 μM, 24 hours
Procedure: (§1) FIG. 2A, FIG. 2B, FIG. 2C, FIG. 2D, FIG. 2E, FIG. 2F, FIG. 2G-1, and FIG. 2G-2 display how WRG-28 and Av suppress TGF-β1-induced fibroblasts activation and the differentiation of pericytes into myofibroblasts. […] Each bar represents the mean #SEM. […] The protein levels of collagen 1a1 and α-SMA were assessed using Western blot analysis under various conditions. […] Each bar represents mean±SEM. […] The images were acquired using a confocal microscope (Olympus, MPE). FIG. 2G-1 and FIG. 2G-2 display the measurement of angles between collagen fibers and the cell membrane, conducted using Image J. At least five different images from each condition were analyzed. Each bar represents mean±SEM. […]
(§2) Cell lysates were harvested in RIPA buffer (150 mM NaCl, 1 mM EGTA, 50 mM Tris pH 7.4, 10% glycerol, 1% Triton X-100, 1% sodium deoxycholate, 0.1% SDS, and protease inhibitor cocktail) and collected from culture dish with cell scrapers. […] The protein expression levels were assessed by specific primary antibodies, including antibodies against phosphotyrosine (clone 4G10; Millipore), DDR2 (R&D), α-SMA (Sigma), Collagen 1a1 (Boster), E-cadherin (BD Biosciences), SGLT2 (Proteintech), NHE1 (Novus) and β-actin (Clone C4, Millipore), followed by incubating with secondary antibodies conjugated with HRP and detected by ECL kit (Thermo Scientific). […]

Stim1 or Orai1 puncta = target: T1, Stim1 or Orai1 puncta (Homo sapiens, UniProt Q96D31); test: Orai1 and Stim1 puncta in HEK293T cells overexpressing CFP-Orai1/Stim1-mCherry after thapsigargin; assay type: cell-based; conditions: 10 μM pretreatment 30 min, 1 μM thapsigargin 15 min
T1 construct: expressed in transfected cells; host or cells: HEK293T
T1 sequence (Q96D31 whole entry): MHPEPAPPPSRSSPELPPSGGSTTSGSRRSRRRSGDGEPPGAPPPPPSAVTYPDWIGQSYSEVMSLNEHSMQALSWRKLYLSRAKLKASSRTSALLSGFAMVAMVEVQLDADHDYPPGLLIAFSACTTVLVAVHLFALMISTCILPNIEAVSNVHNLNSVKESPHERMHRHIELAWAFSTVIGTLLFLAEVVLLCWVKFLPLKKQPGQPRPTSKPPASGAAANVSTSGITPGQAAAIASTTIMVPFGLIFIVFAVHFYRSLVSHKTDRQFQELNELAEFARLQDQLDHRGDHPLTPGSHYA
Procedure: FIG. 1A, FIG. 1B, FIG. 1C, FIG. 1D, FIG. 1E, FIG. 1F, FIG. 1G, FIG. 1H, FIG. 1I, FIG. 1J, FIG. 1K, FIG. 1L, FIG. 1M, and FIG. 1N show WRG-28 and atovaquone (Av) suppress the activation of DDR2 and calcium release-activated calcium (CRAC) channel. FIG. 1A indicates HEK293T cells were transiently overexpressed with DDR2 and then pretreated with different compounds (10 μM), including WRG-28, Av, donepezil hydrochloride (Dh), terazosin hydrochloride (Th), verapamil and flecainide for 30 minutes. Verapamil and flecainide were used as negative control here. After that, cells were treated with 50 μg/mL type I collagen for 12 hours. Cell lysates were harvested and subjected to Western blot analysis with antibodies against phosphotyrosine antibody (clone 4G10), DDR2, and β-actin. […] CRAC channel activity was evaluated by applying 1 μM thapsigargin (Thap.) in a calcium-free solution to deplete the endoplasmic reticulum calcium store, followed by the reintroduction of 2 mM Ca^2+ in an external solution. The concentration of cytosolic calcium ions increases as calcium flows through the CRAC channel, leading to the second peak in cytosolic calcium waves. […] Further analyses are presented in FIG. 1I and FIG. 1J, where the second peak of each wave and rate of entry were analyzed. […] The Orai1 and Stim1 puncta in HEK293T cells overexpressed with CFP-Orai1/Stim1-mCherry were assessed. […]

NRK49F cells = test: TGF-β1-induced activation of renal fibroblasts (Western blot); assay type: cell-based, rat; conditions: 10 μM, 24 hours
Procedure: as §1, §2

Row | formation of Stim1 or Orai1 puncta induced by store depletion (Stim1 or Orai1 puncta) | SMILES | TGF-β1-induced upregulation of collagen 1a1 and α-SMA in pericyte (CCL-226 cells) | TGF-β1-induced upregulation of collagen 1a1 and α-SMA (NRK49F cells)
1 | unaffected | Cc1nnsc1C(=O)Nc1ccc(-n2nc(C(F)(F)F)cc2C(F)(F)F)cc1 [BTP2] | significantly suppressed | significantly suppressed
2 | unaffected | CCNS(=O)(=O)c1ccc(COc2ccc3nc4ccc(=O)cc-4oc3c2)cc1 [WRG-28] | significantly suppressed | significantly suppressed
